Experimental data reported in a melting point compilation (Tetko et al.; mined from patent text by program, amines drawn as free bases though some values may be those of a salt).

melting point [°C]	Compound
259 to 261	CC1(c2ccc(O)c(O)c2)C(=O)Nc2ccccc2C1=O (stereo not given)
184 to 185	O=C(N[C@H](Cc1ccc(C(F)(F)F)cc1)[C@@H](O)c1ccc(Oc2ccccc2)cc1)c1ccc(F)c2ccccc12 (racemic)
149 to 151	CCN(C(=O)Nc1ccccc1CCc1cc(C(C)(C)C)c(O)c(C(C)(C)C)c1)C1CCN(Cc2ccccc2)CC1
235 to 239	O=C(Nc1cccc2c(CO)ccnc12)c1c(Cl)cccc1Cl
134 to 135	COC(=O)c1ccc(CN(C(CO)CO)S(=O)(=O)c2ccc(Cl)s2)cc1
171 to 172	COc1cc(OC)c(-c2cccs2)cc1/C=C/C(=O)c1ccc(S(=O)(=O)NCCN2CCOCC2)cc1
75 to 77	Cc1ccc(CNc2nc(Nc3cccc(N)c3)nc(OCC(F)(F)F)n2)o1
138 to 139	Cc1cc(Cl)ccc1Oc1ccc(C(=O)C=CC(=O)O)cc1
150 to 151	O=c1[nH]c(=O)n(Cc2ccc(OCc3noc(-c4ccccc4)n3)cc2)o1
158 to 159	CCCCc1nc(Cl)c(C(=O)OCC)n1Cc1ccc2oc(-c3ccccc3NS(=O)(=O)C(F)(F)F)c(Br)c2c1
86 to 87	O=C(O)CCSC(C(=O)O)c1ccccc1CCCCCCCCc1ccccc1 (stereo not given)
154 to 156	CCc1c(C)nc2ccc(C)cn2c1=O
197 to 198	Nc1ccc(S(=O)(=O)Nc2ccc(S(N)(=O)=O)cc2)cc1Cl
162 to 165	CC1=C(c2ccncc2)SC(Nc2ccccc2)C(=O)N1 (stereo not given)
85 to 88	COc1ccc(C(=O)c2cccc(C#N)c2)cc1
194 to 195	CC1(C)CCc2c(-c3ccoc3)nc3sc4c(NCCCN5CCCC5=O)ncnc4c3c2C1
76 to 78	CCOC(=O)c1c(C)nc(CCl)c(C(=O)OCC)c1-c1cccc([N+](=O)[O-])c1
180 to 182	CC(=O)N1CCc2ccc(NS(=O)(=O)c3ccccc3)cc2C1
167 to 170	CS(=O)(=O)Nc1ccc(Cn2c(=S)n(Cc3ccc(OC(F)(F)F)cc3)c3ccccc32)cc1

melting point [°C]	Compound
162	Nc1cccc(Nc2ncc(-c3cccnc3)s2)c1
204 to 207	COc1cc2ncnc(N3CCCCCc4ccccc43)c2cc1OC
186	CN(C)c1ccccc1CC(=O)N1C[C@@H]2[C@H](F)CCC(c3ccccc3)(c3ccccc3)[C@@H]2C1
> 300	CC(C)c1c(-c2ccncc2)[nH]c2ccc(C3=NNC(=O)CC3)cc12
237 to 238	Cc1cccc(C)c1CNc1cc(S(=O)(=O)N(C)C)cc2c1nc(C)n2C
181 to 182	CCc1nc2c(N)nc3ccccc3c2n1CCCCNS(=O)(=O)c1ccccc1
212	Cc1ccc(C)c2c1C(=O)N(c1ccc(F)cc1F)C2=O
155 to 157	CC(C)(Cc1ccc2oc(-c3nc(C(C)(C)C)cs3)cc2c1)C(=O)O
118 to 120	CC(C)C[C@@H](CO)NC(=O)[C@H](Cc1c[nH]cn1)NC(=O)[C@H](Cc1cccc2ccccc12)NC(=O)OCC1c2ccccc2-c2ccccc21
141 to 144	COCCNc1cc(Cl)nc(-c2ccc(C)cc2)n1
215 to 216	Cc1cc(C(=O)O)ccc1C(N)(CC1c2ccccc2Oc2ccccc21)C(=O)O (stereo not given)
195 to 196	COc1ccc(-c2cccs2)cc1/C=C/C(=O)c1ccc(C(=O)O)cc1
109 to 112	O=C(Nc1ccc(Cl)c(Cl)c1)NS(=O)(=O)c1ccc2c(c1)C(O)CO2 (stereo not given)
190 to 192	CCc1cc(NC(=O)c2cccs2)cc(CC)c1O
86 to 93	CN(C)CCCCCCNC(=O)c1ccc(-c2nnc(CSCCOc3ccccc3)o2)cc1
178 to 179	CCOC(=O)c1cc(-c2nccs2)[nH]c1C(CC1CCOCC1)c1ccc(S(=O)(=O)C2CC2)cc1 (stereo not given)
59 to 60	C(=C\c1nc(COc2cccc(CCCn3cncn3)c2)co1)/c1ccccc1
70 to 72	CCOC(C)=NS(=O)(=O)c1nc(-c2ccccc2Cl)ns1
168 to 170	O=[N+]([O-])c1ccc(-c2nc(-c3ccco3)no2)cc1

melting point [°C]	Compound
165 to 166	CCCSc1nc(NC2CC2c2ccccc2)c2nnn(C3CC(C(=O)NC)C(O)C3O)c2n1 (stereo not given)
48 to 50	O=C(CCCCCCCCc1ccc(Cl)cc1)NO
188 to 190	CCCn1nc2c(N)nc3ccccc3c2c1CC(C)(C)O
168 to 170	S=c1[nH]nc(Cc2ccccc2Nc2c(Cl)cccc2Cl)o1
49 to 52	OCc1cccc(Nc2nc(Oc3ccccc3)nc(Oc3ccccc3)n2)c1
192 to 194	Cc1nc2c(O)c(CCC(=O)c3ccccc3)c(C(=O)N(C)C)cc2n1COCC[Si](C)(C)C
180 to 182	Oc1cc2onc(-c3ccccc3F)c2cc1Cl
209 to 210	O=[N+]([O-])c1ccc2c(c1)C(n1ccccc1=S)=CC(CF)(CF)O2
175 to 177	Cc1nc2cc3c(cc2c(=O)[nH]1)C(N(C)c1ccc(C(=O)NC(CCC(=O)NC(C(=O)O)c2ccc(CC(=O)O)cc2)C(=O)O)c(F)c1)CC3 (stereo not given)
197 to 199	CC1(C)Oc2ccc(C#N)cc2[C@@H](NNC(=O)c2ccccc2)[C@@H]1O (relative stereo)
173	NNc1nccc(-c2ccc3c(ccn3-c3ccccn3)c2)c1Cl
252 to 254	O=C(Nc1ccc(C(=O)N2Cc3ccccc3Cc3ccccc32)cc1)c1sc2ccccc2c1Cl
99 to 100	CCOC(=O)CCc1oc(-n2cncn2)nc1-c1ccc(Cl)cc1
126 to 127	CN(C)CCNC(=O)c1cccc(-c2cccc3cc(Cc4cc(F)cc(Cl)c4)sc23)c1
185 to 186	CCCCNC(=O)NS(=O)(=O)c1cc2c(cc1OC)OCC(NC(=O)c1cc(Cl)ccc1OC)C2 (stereo not given)
215 to 217	Oc1ccc(Nc2cc(-c3ccccc3)[nH]n2)cc1
155 to 156	CN1CCC(=O)C(C2c3ccccc3Sc3ccccc32)C1 (stereo not given)
63 to 65	O=C(Br)Cc1ccc(-c2cccc(Cl)c2)cc1
204 to 205	CCOC(=O)Nc1nc(-c2ccccc2)c(-c2nc3ccccc3c(=O)n2-c2cccc(OC)c2)s1

More lines, now with the values behind:

Compound	melting point [°C]
Cc1ncc([N+](=O)[O-])n1CCN1C(=O)CCC1=O	147 to 148
COC(=O)C1=CC(NC(=O)OC(C)(C)C)CO1 (stereo not given)	94 to 96
COC1C=C(C)C(=O)CC(C)(C)C1OC(=O)Cc1csc(N)n1 (stereo not given)	116 to 117
CC(C)(C)c1cc(-c2nnc(NC#N)s2)cc(C(C)(C)C)c1O	> 250
COc1cc2nc(N3CCN(c4nccs4)CC3)nc(N)c2cc1OC	220 to 221
COc1cc(C2CCC(c3cc(OC)c(OC)c(OC)c3)C2O)cc(OC)c1OC (stereo not given)	138 to 140
CC(C)COc1ccccc1C(N)=O	125 to 128
C[C@@H]1S[C@@H](C(=O)Nc2ccc(CN3CCCCC3)cc2)Cc2cc3c(cc2C1=O)OCO3	162 to 165
Cc1cc(C)cc(C(=O)NC(=S)Nc2c(O)cc(C)c(Br)c2C)c1	164 to 166
CC(COc1ccccc1C1NC(C(=O)O)CS1)O[N+](=O)[O-] (stereo not given)	127 to 130
c1ccc2c(c1)CC1(CCNCC1)O2	56 to 58.5
CSC1=Nc2ccccc2C(c2ccccc2)=NC1	167 to 168
CCc1c(C)[nH]c2cc(OCOC)c(Cl)cc2c1=O	217 to 219
CC(C)(C)c1nc(C(N)=S)nc(C(C)(C)C)c1O	169 to 171
Cc1nc2cc(NC(=O)c3cc4cc(Cl)ncc4n3Cc3cccc(F)c3)ccc2n1C	240 to 242
COC(=O)C1CCC2C3CCC4CC(OS(=O)(=O)c5ccc(C)cc5)CCC4(C)C3C(=O)CC12C (stereo not given)	158 to 160
O=C1CCC(N2C(=O)c3cccc(OCc4ccc(CN5CCC(c6ccc(Cl)cc6)CC5)cc4)c3C2=O)C(=O)N1 (stereo not given)	236 to 238
O=[N+]([O-])c1cc(C(F)(F)F)c(Cl)c([N+](=O)[O-])c1NC1CC1	86 to 87
NC(Cc1ccccc1F)=NO	85 to 87
O=C(O)CNC(=O)Nc1ccc([N+](=O)[O-])cc1	213 to 214
N#CNC(CSCc1ccccn1)=NCCO	68 to 69
CCNc1cc(N2CCN(C(=O)OC(C)(C)C)CC2)c(F)cc1[N+](=O)[O-]	129 to 131

Compound	melting point [°C]
Cc1cccc(Nn2cnc(C)c2C)c1	144
COC(=O)c1cc(Cl)cc(O)c1O	102
CCCc1cc(C#N)sc1-c1ccc2c(c1)C(C)(C)OC(=S)N2	174 to 175
NC(=O)N(c1ccccc1-c1nc(C2CC2)no1)C1CN2CCC1CC2 (stereo not given)	229 to 233
COc1cc(Nc2nccc(-c3sc(N4C=CC=NC4)nc3C)n2)ccc1N1CCOCC1	212 to 214
CC(C)c1cc(C(C)C)c(C(=O)Nc2ccc(C(=O)O)cc2)[nH]1	225 to 226
Cc1cccc([N+](=O)[O-])c1Br	36 to 41
CCOC(=O)c1c(N(C)C)cc(C(F)(F)F)nc1C(F)(F)F	63.5 to 65
S=C(Cc1cccs1)N1CCCCC1	51.5 to 52
CCOC(=O)c1cn(C)c2nn(C)cc2c1=O	235 to 240
COc1cc2c(cc1O)CCCN(Cc1cc(OC)c(OC)c(OC)c1)C2	46 to 48
COC(=O)c1cc2cc(C(=O)c3cccs3)c(Cl)c(Cl)c2o1	184 to 187
CCCN(C(C)C)[C@H]1COc2cccc(C(N)=O)c2C1	121 to 122
O=C1c2ccccc2SCN1CCO[N+](=O)[O-]	68 to 69
C#CC1(O)CCC2(C)C(CCC3C4CCC(C(C)=O)C4(C)C=CC32)C1 (stereo not given)	147 to 150
Nc1cc(=O)n(Cc2cccc(F)c2)[nH]1	129
CCOC(=O)c1cn(C)c2sc(CCl)cc2c1=O	111 to 112
CNc1nc(Cl)nc2c1ncn2C1OC(CO)C(O)C1O (stereo not given)	224 to 225
CC(C)(S)C(=O)NC(=O)[C@@H](N)CS	124 to 125
Cc1cc(C(=O)CC(=O)C(F)(F)F)c(F)cc1Cl	59 to 60
CCN(CC)C(C(C(=O)C(C)(C)C)n1cncn1)C(Cl)(Cl)Cl (stereo not given)	103 to 110
